Experimental data: patent publication US20220087983A1, “ACTIVATING PYRUVATE KINASE R” (FORMA Therapeutics, Inc., priority 2020, published 2022)
“Also recorded” adds a separate entry of the source.

Assays:
2,3-DPG blood levels = test: Phase 1: blood 2,3-DPG levels in healthy volunteers (LC-MS/MS); format: in vivo, human; conditions: for Mean maximum percent change from baseline in 2,3-DPG: all doses and timepoints
Description: In this study, SAD/MAD cohorts are randomized (3 to 1) to receive Compound 1 or placebo (P). Compound 1 was evaluated first in 4 healthy SAD cohorts and 4 healthy MAD (14-day dosing period) cohorts. Based on the safety, and PK/PD profile from HS, Compound 1 is then evaluated in 1 SCD SAD cohort and 2 SCD MAD cohorts. Specifically, based on the safety and pharmacokinetic/pharmacodynamics (PK/PD) profile in healthy volunteer studies, Compound 1 is evaluated in patients (pts) with SCD, first in a single dose (SD or SAD) cohort and then in multiple-dose (MD or MAD) cohorts (14-day and 12-week). Safety assessments include AEs, vital signs, ECGs and laboratory parameters. PK/PD blood sampling was performed on Day 1 (SAD/MAD) and Day 14 (MAD) and up to 72 h after the last dose and at the end-of-study visit. PD parameters included 2,3-DPG, ATP, and p50 in all cohorts with additional PD studies (including oxygen scan) performed only in the SCD cohorts. PD parameters included 2,3-DPG, ATP, p50, RBC deformability with controlled deoxygenation and reoxygenation (Lorrca® oxygen scan) and varying osmolality (Lorrca® osmoscan)). To maintain study blind, pt identifiers were removed when needed.
In the SAD cohorts, the subjects' blood 2,3-DPG levels were measured periodically after dosing by a qualified LC-MS/MS method for the quantitation of 2,3-DPG in blood. Decreased 2,3-DPG blood levels were observed 6 hours following a single dose of Compound 1 at all dose levels (earlier timepoints were not collected). Maximum decreases in 2,3-DPG levels generally occurred ˜24 hours after the first dose with the reduction sustained ˜48-72 hr postdose. Table 15 reports the median percentage change in 2,3-DPG blood levels, relative to baseline, measured over time in healthy volunteers after a single dose of Compound 1 (200 mg, 400 mg, 700 mg, or 1000 mg) or placebo. Table 16 reports the mean percentage change in 2,3-DPG blood levels, relative to baseline, measured over time in healthy volunteers after a single dose of Compound 1 (200 mg, 400 mg, 700 mg, or 1000 mg). Accordingly, the median and mean reduction in the concentration of 2,3-DPG, relative to baseline, was at least about 30% at all dose levels tested 24 hours after administration of the single dose.
In the MAD cohorts, the subjects' blood 2,3-DPG levels were measured periodically after dosing by a qualified LC-MS/MS method for the quantitation of 2,3-DPG in blood. The maximum decrease in 2,3-DPG on Day 14 was 55% from baseline (median). […] Table 18A reports the median percentage change in 2,3-DPG blood levels, relative to baseline, measured over time after the first dose on days 1 and 14 in healthy volunteers who received daily doses of Compound 1 (100 mg BID, 200 mg BID, or 300 mg BID) or placebo for 14 days. Table 18B reports the mean percentage change in 2,3-DPG blood levels, relative to baseline, measured over time after the first dose on days 1 and 14 in healthy volunteers who received daily doses of Compound 1 (100 mg BID, 200 mg BID, 300 mg BID, or 400 mg QD) for 14 days. Accordingly, the median and mean reduction in the concentration of 2,3-DPG, relative to baseline, was at least about 25% at all dose levels tested 24 hours after administration of the first dose on day 1 and at least about 40% at all dose levels tested 24 hours after administration of the first dose on day 14.
The following procedures are employed for the analysis of ATP and 2,3-DPG in human whole blood K2EDTA using a protein precipitation extraction procedure and analysis by LC-MS/MS.
The following procedures are used for sample extraction prior to analysis via LC-MS/MS. 15.0 μL of the calibration standards, quality controls, matrix blanks, and samples are aliquoted into a 96-well plate. 50.0 μL of the internal standard spiking solution is added to all samples on the plate, with the exception of the matrix blank samples; 50.0 μL of water is added to the matrix blank samples. […]

[1] = system: estradiol and testosterone levels; test: Circulating estradiol and testosterone in healthy subjects, 14 days; format: in vivo, human; conditions: up to 14 days, 100-300 mg BID, 400 mg QD
Description: Effects on circulating levels of estradiol and testosterone in male and female healthy subjects receiving Compound 1 or placebo for a treatment period of 14 days were evaluated. Compound 1 was administered twice daily (BID) at dose levels of 100 mg, 200 mg, and 300 mg, and once daily (QD) at a dose level of 400 mg. Each dosing cohort was comprised of 9 subjects treated with Compound 1 and 3 subjects treated with placebo. Testosterone and estradiol levels were assessed prior to dosing (baseline), and then on days 8, 14 and 17.

CYP1A2 = molecular target: T1, CYP1A2 (Homo sapiens, UniProt P05177); test: Single substrate DDI assay, reversible CYP inhibition in human liver microsomes; format: in vitro ADME
T1 construct: from tissue; host or cells: human liver microsomes
T1 sequence (P05177 1-516): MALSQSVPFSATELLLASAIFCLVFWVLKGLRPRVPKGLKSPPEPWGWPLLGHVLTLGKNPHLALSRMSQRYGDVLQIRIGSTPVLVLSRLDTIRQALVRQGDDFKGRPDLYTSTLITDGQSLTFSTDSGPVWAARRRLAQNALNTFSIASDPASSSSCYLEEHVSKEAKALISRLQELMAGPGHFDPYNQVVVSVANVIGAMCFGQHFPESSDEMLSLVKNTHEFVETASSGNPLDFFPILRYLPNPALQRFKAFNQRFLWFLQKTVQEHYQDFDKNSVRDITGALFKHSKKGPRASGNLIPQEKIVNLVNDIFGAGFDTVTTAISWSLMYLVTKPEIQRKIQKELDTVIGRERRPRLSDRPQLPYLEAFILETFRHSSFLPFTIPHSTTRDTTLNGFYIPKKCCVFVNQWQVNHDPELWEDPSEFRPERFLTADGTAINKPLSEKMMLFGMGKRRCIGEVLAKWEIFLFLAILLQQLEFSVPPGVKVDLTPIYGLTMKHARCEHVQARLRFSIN

O=C([C@H](CO)c1ccccc1)N1CC2=C(C1)CN(S(=O)(=O)c1cnc3c(c1)OCCO3)C2 (single isomer, unassigned) [Compound 1]
maximum decrease in 2,3-DPG on Day 14 from baseline (median) (2,3-DPG blood levels; HV MAD cohorts): 55% | median and mean reduction of 2,3-DPG relative to baseline (2,3-DPG blood levels; HV MAD, all dose levels, 24 hours after first dose on day 1): at least 25% | median and mean reduction of 2,3-DPG relative to baseline (2,3-DPG blood levels; HV MAD, all dose levels, 24 hours after first dose on day 14): at least 40% | Mean maximum percent change from baseline in 2,3-DPG (2,3-DPG blood levels; HV MAD, N = 36): −56.3% | Mean maximum percent change from baseline in 2,3-DPG (2,3-DPG blood levels; HV SAD, N = 24): −46.8% | median and mean reduction of 2,3-DPG relative to baseline (2,3-DPG blood levels; HV, all single dose levels, 24 hours after dose): at least 30% | lag of maximum 2,3-DPG decrease behind maximum plasma concentration (2,3-DPG blood levels; HV, single 200-1000 mg dose): about 24 hours | Median percentage change in 2,3-DPG levels (2,3-DPG blood levels; HV, single dose 200 mg, 0 h after dose): 0.0% | Median percentage change in 2,3-DPG levels (2,3-DPG blood levels; HV, single dose 200 mg, 8 h after dose): −17% | Median percentage change in 2,3-DPG levels (2,3-DPG blood levels; HV, single dose 200 mg, 48 h after dose): −29% | Median percentage change in 2,3-DPG levels (2,3-DPG blood levels; HV, single dose 400 mg, 0 h after dose): 0.0% | Median percentage change in 2,3-DPG levels (2,3-DPG blood levels; HV, single dose 400 mg, 8 h after dose): −29% | Median percentage change in 2,3-DPG levels (2,3-DPG blood levels; HV, single dose 400 mg, 72 h after dose): −30% | Median percentage change in 2,3-DPG levels (2,3-DPG blood levels; HV, single dose 700 mg, 0 h after dose): 0.0% | Median percentage change in 2,3-DPG levels (2,3-DPG blood levels; HV, single dose 700 mg, 6 h after dose): −29% | Median percentage change in 2,3-DPG levels (2,3-DPG blood levels; HV, single dose 700 mg, 16 h after dose): −46% | Median percentage change in 2,3-DPG levels (2,3-DPG blood levels; HV, single dose 700 mg, 36 h after dose): −46% | Median percentage change in 2,3-DPG levels (2,3-DPG blood levels; HV, single dose 1000 mg, 36 h after dose): −47% | effect on testosterone and estradiol levels [1]: No effect; also recorded: no statistically significant changes | IC50 (CYP1A2): > 30 µM
